# Source: patent publication US11040954B1, “CXCR3 receptor agonists” (RECEPTOS LLC, priority 2016, dated 2021)
# pEC50: −log10 of the molar value.
# Target: T1, CXCR3 (Homo sapiens, UniProt P49682)
# T1 construct: host or cells: CHO-K1 (cAMP Hunter CHOK1 CXCR3 Gi cell line)
# T1 sequence (P49682 1-368): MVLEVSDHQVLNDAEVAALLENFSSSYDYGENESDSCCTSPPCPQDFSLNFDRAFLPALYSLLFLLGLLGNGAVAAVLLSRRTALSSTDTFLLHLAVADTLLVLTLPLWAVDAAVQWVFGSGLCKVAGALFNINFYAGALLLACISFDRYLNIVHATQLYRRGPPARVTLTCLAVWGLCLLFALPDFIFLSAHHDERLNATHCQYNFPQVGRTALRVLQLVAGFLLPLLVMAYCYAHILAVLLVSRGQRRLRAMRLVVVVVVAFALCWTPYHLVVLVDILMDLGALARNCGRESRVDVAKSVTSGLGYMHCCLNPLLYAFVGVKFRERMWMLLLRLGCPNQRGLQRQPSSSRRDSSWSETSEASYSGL
# Experiment: CXCR3 cAMP agonist assay (cAMP Hunter CHOK1 CXCR3 Gi cell line, forskolin-stimulated, HitHunter cAMP detection)
# Format: cell-based
# Settings: cAMP Hunter CHOK1 CXCR3 Gi cells, 20 μM forskolin, 30 minutes; read-out: Activity (CXCR3 cAMP agonist assay compound EC50)
# Experimental: The cAMP Hunter™ CHOK1 CXCR3 Gi cell line was purchased from DiscoveRx. Cells were seeded into a 96-well white assay plate at 50,000 cells/well/94 μl assay buffer (Hank's Buffered Saline Solution, 10 mM HEPES, 0.1% fatty acid-free BSA, pH 7.4) and immediately assayed in suspension. Forskolin was added to 20 μM (5 μl of 400 μM stock) simultaneously with a 12-point dose response curve of compound at 0-10 μM (1 μl of 100× stock in 100% DMSO), and cells were incubated for 30 minutes. A cAMP standard curve is run as an assay control. A CXCL11 dose response was included to determine maximum efficacy. Direct detection of cAMP was carried out using the DiscoveRx HitHunter cAMP kit according to manufacturer's instructions, and luminescence was read using a SpectraMax M5 plate reader.
row,pEC50,Structure (SMILES)
1,> 7.30,Cc1cc(NC(=O)[C@H](CCN)NC(=O)[C@@H]2Cc3ccccc3CN2C(=O)CCC(=O)N2CCN(C)C(C)(C)C2)ccc1Cl [Compound 12-131]
2,> 7.30,Cc1cc(NC(=O)[C@H](CCN)NC(=O)[C@@H]2Cc3ccccc3CN2C(=O)CCC(=O)N2CC[C@@H](C)C2)ccc1Cl [Compound 12-122]
3,> 7.30,CCC1CCCN(C(=O)CCC(=O)N2Cc3ccccc3C[C@H]2C(=O)N[C@@H](CCN)C(=O)Nc2ccc(Cl)c(C)c2)C1 (stereo partly shown) [Compound 12-120]
4,> 7.30,Cc1cc(NC(=O)[C@H](CCN)NC(=O)[C@@H]2Cc3ccccc3CN2C(=O)CCC(=O)N2CCC[C@@H](C)C2)ccc1Cl [Compound 12-57]
5,6.30 to 6.60,Cc1nc2ccc(NC(=O)[C@H](CCN)NC(=O)[C@@H]3Cc4ccccc4CN3C(=O)CCC(=O)c3ccccc3)cc2s1 [Compound 2-64]
6,> 7.30,NCC[C@H](NC(=O)[C@@H]1Cc2ccccc2CN1C(=O)CCC(=O)c1ccccc1)C(=O)NC1Cc2ccccc2C1 [Compound 2-66]
7,> 7.30,COc1cc(C)c(Cl)cc1NC(=O)[C@H](CCN)NC(=O)[C@@H]1Cc2ccccc2CN1C(=O)CCC(=O)c1ccccc1 [Compound 1-36]
8,> 7.30,CC(C)NCC[C@H](NC(=O)[C@@H]1Cc2ccccc2CN1C(=O)CCC(=O)c1ccccc1)C(=O)Nc1ccc(Cl)c(Cl)c1F [Compound 8-7]
9,> 7.30,"Cc1cc(NC(=O)[C@H](CCN2CCC(O)CC2)NC(=O)[C@@H]2Cc3ccccc3CN2C(=O)CCC(=O)c2ccccc2)ccc1Cl [Compound 17-1, (S)—N—((S)-1-((4-chloro-3-methylphenyl)amino)-4-(4-hydroxypiperidin-1-yl)-1-oxobutan-2-yl)-2-(4-oxo-4-phenylbutanoyl)-1,2,3,4-tetrahydroisoquinoline-3-carboxamide]"
10,> 7.30,CC1(C)CCN(C(=O)CCC(=O)N2Cc3cc(F)ccc3C[C@H]2C(=O)N[C@@H](CCN)C(=O)Nc2ccc(Cl)c(Cl)c2F)CC1 [Compound 15-60]
11,> 7.30,Cc1ccc(NC(=O)[C@H](CCN)NC(=O)[C@@H]2Cc3ccccc3CN2C(=O)CCC(=O)c2ccccc2)cc1Cl [Compound 2-16]
12,6.30 to 6.60,NCC[C@H](NC(=O)[C@@H]1Cc2ccccc2CN1C(=O)CCC(=O)c1ccccc1)C(=O)Nc1cc(Cl)c(F)c(Cl)c1 [Compound 27-2]
13,6.30 to 6.60,CN(C)CCCC[C@H](NC(=O)[C@@H]1Cc2ccccc2CN1C(=O)CCC(=O)c1ccccc1)C(=O)Nc1ccc(Cl)c(Cl)c1 [Compound 1-31]
14,> 7.30,Cc1cc(NC(=O)[C@H](CCN)NC(=O)[C@@H]2Cc3ccccc3CN2C(=O)CCC(=O)N2[C@H](C)CCC[C@@H]2C)ccc1Cl [Compound 12-43]
15,> 7.30,NCC[C@H](NC(=O)[C@@H]1Cc2ccccc2CN1C(=O)CCC(=O)N1CCCCCC1)C(=O)Nc1ccc(Cl)c(Cl)c1F [Compound 15-15]
16,> 7.30,Cc1cc(NC(=O)[C@H](CCN)NC(=O)[C@@H]2Cc3ccccc3CN2C(=O)CCC(=O)N2CCC(C#N)CC2)ccc1Cl [Compound 12-44]
17,> 7.30,"N#Cc1c(NC(=O)[C@H](CCN)NC(=O)[C@@H]2Cc3ccccc3CN2C(=O)CCC(=O)c2ccccc2)ccc2c1CCC2 [Compound 35-1, (S)—N—((S)-4-amino-1-((4-cyano-2,3-dihydro-1H-inden-5-yl)amino)-1-oxobutan-2-yl)-2-(4-oxo-4-phenylbutanoyl)-1,2,3,4-tetrahydroisoquinoline-3-carboxamide]"
18,< 6.30,COc1cc(F)ccc1NC(=O)[C@H](CCN)NC(=O)[C@@H]1Cc2ccccc2CN1C(=O)CCC(=O)c1ccccc1 [Compound 13-6]
19,6.30 to 6.60,NCCCC[C@H](NC(=O)[C@@H]1Cc2ccccc2CN1C(=O)CCC(=O)c1ccccc1)C(=O)Nc1ccc(C(F)(F)F)c(Cl)c1 [Compound 1-22]

row,pEC50,Structure (SMILES)
1,< 6.30,CN(C(=O)CCC(=O)N1Cc2ccccc2C[C@H]1C(=O)N[C@@H](CCN)C(=O)Nc1ccc(Cl)c(Cl)c1F)C1CC1 [Compound 15-41]
2,6.60 to 7.30,Cc1cc(NC(=O)[C@H](CC(N)=O)NC(=O)[C@@H]2Cc3ccccc3CN2C(=O)CCC(=O)c2ccccc2)ccc1Cl [Compound 3-12]
3,> 7.30,CC[C@@H]1CCN(C(=O)CCC(=O)N2Cc3ccccc3C[C@H]2C(=O)N[C@@H](CCN)C(=O)Nc2ccc(Cl)c(C)c2)C1 [Compound 12-154]
4,< 6.30,Cc1cc(NC(=O)[C@H](CCN)NC(=O)[C@@H]2Cc3ccccc3CN2C(=O)CCC(=O)N2CCNCC2)ccc1Cl [Compound 12-115]
5,6.30 to 6.60,Cc1ccccc1NC(=O)[C@H](CCCCN)NC(=O)[C@@H]1Cc2ccccc2CN1C(=O)CCC(=O)c1ccccc1 [Compound 1-12]
6,6.60 to 7.30,CN(CC(C)(C)C)C(=O)CCC(=O)N1Cc2ccccc2C[C@H]1C(=O)NC1(C(=O)Nc2ccc(Cl)c(Cl)c2F)CCNCC1 [Compound 12-137]
7,> 7.30,O=C(NC1(C(=O)Nc2ccc(Cl)c(Cl)c2F)CCNCC1)[C@@H]1Cc2ccccc2CN1C(=O)CCC(=O)N1CCCC12CCC2 [Compound 12-136]
8,< 6.30,O=C(CCC(=O)N1Cc2ccccc2C[C@H]1C(=O)NC1(C(=O)Nc2cccc(Cl)c2Cl)CCNCC1)c1ccccc1 [Compound 11-5]
9,> 7.30,Cc1cc(NC(=O)[C@H](CCN)NC(=O)[C@@H]2Cc3ccccc3CN2C(=O)CCC(=O)c2ccccc2)c(I)cc1Cl [Compound 2-38]
10,> 7.30,Cc1cc(NC(=O)[C@H](CCN)NC(=O)[C@@H]2Cc3ccccc3CN2C(=O)CCC(=O)N2CCCC23CCC3)ncc1Cl [Compound 12-156]
11,> 7.30,CC1(C)COCCN1C(=O)CCC(=O)N1Cc2ccccc2C[C@H]1C(=O)N[C@@H](CCN)C(=O)Nc1ccc(Cl)c(Cl)c1F [Compound 15-11]
12,> 7.30,Cc1cc(NC(=O)[C@H](CCN)NC(=O)[C@@H]2Cc3ccccc3CN2C(=O)CCC(=O)NCCC(C)(C)C)ccc1Cl [Compound 12-2]
13,6.60 to 7.30,"CS(=O)(=O)Oc1ccc2c(c1)CN(C(=O)CCC(=O)c1ccccc1)[C@H](C(=O)N[C@@H](CCN)C(=O)Nc1ccc(Cl)c(Cl)c1F)C2 [Compound 29-1, (S)-3-(((S)-4-amino-1-((3,4-dichloro-2-fluorophenyl)amino)-1-oxobutan-2-yl)carbamoyl)-2-(4-oxo-4-phenylbutanoyl)-1,2,3,4-tetrahydroisoquinolin-7-yl methanesulfonate]"
14,> 7.30,Cc1cc(NC(=O)[C@H](CCN)NC(=O)[C@@H]2Cc3ccccc3CN2C(=O)CCC(=O)c2ccccc2)cc(Br)c1Cl [Compound 2-40]
15,6.60 to 7.30,CC(C)(C)CC1CCCCN1C(=O)CCC(=O)N1Cc2ccccc2C[C@H]1C(=O)N[C@@H](CCN)C(=O)Nc1ccc(Cl)c(Cl)c1F (stereo partly shown) [Compound 15-14]
16,> 7.30,NCC[C@H](NC(=O)[C@@H]1Cc2ccccc2CN1C(=O)CCC(=O)c1ccccc1)C(=O)Nc1cnc2ccccc2c1 [Compound 2-44]
17,6.60 to 7.30,COc1c(NC(=O)[C@H](CCN)NC(=O)[C@@H]2Cc3ccccc3CN2C(=O)CCC(=O)c2ccccc2)ccc2c1CCCC2 [Compound 2-62]
18,6.30 to 6.60,Cc1cccc(NC(=O)[C@H](CCN2CCC(O)CC2)NC(=O)[C@@H]2Cc3ccccc3CN2C(=O)CCC(=O)c2ccccc2)c1Cl (racemic) [Compound 25-3]
